Experimental data published in patent US10767179B2, “MicroRNA composition for the treatment of neuroblastoma” (THE BOARD OF REGENTS OF THE UNIVERSITY OF TEXAS SYSTEM, priority 2014, dated 2020).

Assays:
Type in all cases: cell-based
[1] = system: BE(2)-C cells; test: High-content screen: detection and quantification of neurite outgrowth; set-up: key: neurite length normalized to the mean of its plate; details: 25 nM miRNA mimic, 4 days transfection, normalized to plate mean
Experimental: FIG. 2A-2C. HCS screening of miRNA mimics identifies miRNAs that induce neurite outgrowth in BE(2)-C cells. (A-B) 2,500 cells were reverse-transfected with 25 nM miRNA mimics in 96-well plates. After 4 days transfection, relative neurite lengths were quantified as above. (A) The distribution of post-normalized neurite length measurements (grey histogram) for individual miRNA mimics from the screen and the fitted Gamma distribution curve (␣=3.27, ┘=0.444) (B) Correlation between two independent neurite length measurements for one library plate. Cells were transfected with 25 nM mimics in two independent 96-well plates. Normalized neurite lengths were measured as above. Correlation of neurite length between the two plates was analyzed using two-tailed Pearson Correlation with p<0.05 considered significant. (C) The distribution of the neurite lengths for untreated BE(2)-C cells. 2,500 Cells were plated into each well in 96 well plates. After 4 days of culture, neurite lengths were analyzed as above. Shown are the neurite length distribution histogram, the empirical density curve, and the fitted Gamma distribution curve (␣=30.23, ␣=0.033).
Detection and Quantification of Neurite Outgrowth. Cells were plated and treated in 96-well plates. For detecting neurite outgrowth, cells were placed into ZOOM IncuCyte Imaging System (Essen BioScience) and cell images were taken under 20× microscopic magnification. For detecting neurite outgrowth in a time-dependent manner, cell images were taken every 6 h. The neurite lengths associated with each treatment were calculated using the neurite definition defined for each specific cell line using the NeuroTrack system (Essen BioScience).
Analysis of HCS Data. The relative neurite length associated with cells in each well on the screen plates was determined as above. In order to allow for plate-to-plate comparison, neurite length associated with each well in each plate was first internally normalized to the mean of the corresponding plate, and multiple screen plates were then aggregated together to generate the neurite length distribution. The data were then further analyzed to determine the distribution of the unaffected cells as described below, and to identify differentiation-inducing miRNA mimics.
Statistical Analysis. For HCS, p-value for neurite length associated with each miRNA mimic was evaluated by assuming the distribution of neurite lengths follows Gamma distribution, and false Discovery Rate (FDR) was determined by Benjamini-Hochberg correction method for multiple tests (Benjamin, Journal of the Royal Statistical Society Series B (Methodological), 1995, 57(1):12). […] For all other conditions, the statistical significance for each treatment was determined using t-test by comparing the treatment group with control, with p<0.05 considered statistically significant.

[2] = system: BE(2)-C cells; test: Cell Viability Assay (CellTiter-Glo)
Experimental: Cell Viability Assay. Cells were plated in 96-well format and treated as specified. After culturing for 120 h, cell viability was determined using the CellTiter-Glo Luminescent Cell Viability Assay (Promega).

[3] = system: GAP43, NSE and β-TUBULIN III; test: Western blots of differentiation markers in BE(2)-C cells; details: ATRA 5 days, dose-dependent
Experimental: (§1) Western Blots. Cell lysates were prepared using RIPA buffer. Protein concentration was determined using the Pierce BCA assay (Thermo Fisher Scientific). For electrophoresis, equal amounts of cell lysate were resolved by SDS-PAGE and transferred to Immun-Blot PVDF membranes (Bio-Rad Laboratories). Membranes were blocked and probed with primary antibodies to specific proteins. Bound antibodies were detected with secondary antibodies conjugated with horseradish peroxidase (HRP) visualized by enhanced chemiluminescent (ECL) substrate (Pierce).

[4] = system: PCNA and Ki67; test: Western blots of cell proliferation markers in BE(2)-C cells; details: ATRA 5 days, dose-dependent
Experimental: as §1

[5] = system: cleaved CASPASE 3 and PARP; test: Western blots of apoptosis markers in BE(2)-C cells; details: ATRA 5 days, dose-dependent
Experimental: as §1

[6] = system: BE(2)-C cells; test: High-content screen: detection and quantification of neurite outgrowth; details: ATRA vs carrier (DMSO), 5 days

Molecule: hsa-miR-449b-5p: miRNA mimic, mature sequence AGGCAGUGUAUUGUUAGCUGGC (SEQ ID NO: 15) (AGGCAGUGUAUUGUUAGCUGGC(2); as printed in the source, key not given here)
- Neurite length (mean ± SD) [1]: 7.40 ± 1.85

Molecule: CC1=C(/C=C/C(C)=C/C=C/C(C)=C/C(=O)O)C(C)(C)CCC1 [ATRA, all-trans retinoic acid]
- Cell viability ([2]; 5 days, dose-dependent): decreases cell viability
- Expression of neuroblastoma differentiation markers (GAP43, NSE, β-TUBULIN III) [3]: stimulates expression of neuroblastoma differentiation markers
- Expression of cell proliferation markers (PCNA, Ki67) [4]: inhibits expression of cell proliferation markers
- Expression of apoptosis markers (cleaved CASPASE 3, PARP) [5]: increases expression of apoptosis markers
- Relative neurite length compared to control [6]: significantly increases the relative neurite length

Molecule: hsa-miR-3714: miRNA mimic, mature sequence GAAGGCAGCAGUGCUCCCCUGU (SEQ ID NO: 14) (listed as RNA, chemistry not given here)
- Neurite length (mean ± SD) [1]: 7.56 ± 1.91

Molecule: hsa-miR-103a-3p: miRNA mimic, mature sequence AGCAGCAUUGUACAGGGCUAUGA (SEQ ID NO: 8) (AGCAGCAUUGUACAGGGCUAUGA(3); as printed in the source, key not given here)
- Neurite length (mean ± SD) [1]: 9.43 ± 2.67

Molecule: hsa-miR-450b-3p: miRNA mimic, mature sequence UUGGGAUCAUUUUGCAUCCAUA (SEQ ID NO: 9) (listed as RNA, chemistry not given here)
- Neurite length (mean ± SD) [1]: 9.26 ± 2.64

Molecule: hsa-miR-34b-Sp: miRNA mimic, mature sequence UAGGCAGUGUCAUUAGCUGAUUG (SEQ ID NO: 12) (listed as RNA, chemistry not given here)
- Neurite length (mean ± SD) [1]: 8.41 ± 2.16

Molecule: CC1=C(/C=C/C(C)=C/C=C/C(C)=C\C(=O)O)C(C)(C)CCC1 [cis-RA, 13-cis retinoic acid]
- Cell viability when reaching plateau ([2]; treated for 5 days): 42.6±3.7%

Molecule: hsa-miR-107: miRNA mimic, mature sequence AGCAGCAUUGUACAGGGCUAUCA (SEQ ID NO: 13) (AGCAGCAUUGUACAGGGCUAUCA(3); as printed in the source, key not given here)
- Neurite length (mean ± SD) [1]: 7.60 ± 1.98

Molecule: hsa-miR-34a-5p: miRNA mimic, mature sequence UGGCAGUGUCUUAGCUGGUUGU (SEQ ID NO: 7) (UGGCAGUGUCUUAGCUGGUUGU(2); as printed in the source, key not given here)
- Neurite length (mean ± SD) [1]: 9.49 ± 3.18

Molecule: hsa-miR-137: miRNA mimic, mature sequence UUAUUGCUUAAGAAUACGCGUAG (SEQ ID NO: 16) (listed as RNA, chemistry not given here)
- Neurite length (mean ± SD) [1]: 7.03 ± 1.36

Molecule: hsa-miR-135b-5p: miRNA mimic, mature sequence UAUGGCUUUUCAUUCCUAUGUGA (SEQ ID NO: 6) (listed as RNA, chemistry not given here)
- Neurite length (mean ± SD) [1]: 14.02 ± 4.29

Molecule: hsa-miR-3937: miRNA mimic, mature sequence ACAGGCGGCUGUAGCAAUGGGGG (SEQ ID NO: 17) (listed as RNA, chemistry not given here)
- Neurite length (mean ± SD) [1]: 6.93 ± 1.05

Molecule: hsa-miR-449a: miRNA mimic, mature sequence UGGCAGUGUAUUGUUAGCUGGU (SEQ ID NO: 10) (UGGCAGUGUAUUGUUAGCUGGU(2); as printed in the source, key not given here)
- Neurite length (mean ± SD) [1]: 9.16 ± 2.47
